Test results taken from ChEMBL document CHEMBL1143780, “Towards erythropoietin mimicking small molecules” (Bioorg Med Chem Lett, 2007).
Calls of active or inactive are those of the source. The rule behind the calls is not given here.

What was measured:
BaF3 [1] = test: Effect on proliferation in BaF3 EPOr cells; assay type: functional, cell-based; details: Homo sapiens
BaF3 [2] = test: Effect on proliferation in wild type BaF3 cells; assay type: functional, cell-based; details: Homo sapiens

Question: For `COc1ccc(C(=O)/C=C/c2ccc(N3C[C@H](CNC(C)=O)OC3=O)cc2)cc1`, which Activity (BaF3 [1]) is on record?
Answer: Active

Question: What about the Activity (BaF3 [2]) of the same molecule?
Answer: Active
